Measured values reported in patent US4618681A, “Aryl substituted 1H-4,5-dihydro-1,2,3-triazoles as anticonvulsants” (priority 1984, dated 1986).
Read-outs that look alike come from different tables or passages of the source.

Key:
[1] = Phase I anticonvulsant screening (MES and scMet tests); settings: for Anticonvulsant Activity Group Classification: Phase I screening, MES and scMet tests, mouse; for signs of neurological deficit: at 600 mg/kg (compound 7) and 300 mg/kg (compound 12); for anticonvulsant potency: in words
[2] = Subcutaneous Metrazol Seizure Threshold Test (sc Met) in rats; type: in vivo, rats (male albino, Sprague Dawley); settings: Rattus norvegicus, po; rats, p.o.; read-out: ED50 sc Met
Method: (§1) The drugs were administered either orally or intraperitoneally in a volume of 0.01 ml/g body weight in mice and 0.04 ml/10 g in rats. All tests were conducted at the previously determined time of peak drug effect.
(§2) The profile of anticonvulsant activity for each substance was established by five tests: one electrical and four chemical. The electrical test employed was the maximal electroshock seizure pattern test. […] Except for the sc Strych Test, these tests measure the ability of anticonvulsants to afford complete protection against threshold seizures induced by the subcutaneous injection of the CD97 of the convulsant agent.
(§3) All convulsants were administered subcutaneously into a loose fold of skin on the back of the neck in a volume of 0.01 ml/g body weight in mice; Metrazol was injected in a volume of 0.02 ml/10 g body weight in rats. The convulsant drugs were administered at the previously determined time of peak anticonvulsant action of the drug under study. […] Except for strychnine, absence of a five-second episode of clonic spasms (threshold seizure) was taken as protection. In the case of strychnine, complete abolition of the hindleg tonic extension was taken as protection.

[3] = type: in vivo; settings: Phase V, mice, i.p.
Method: as §2, §3

[4] = in vivo; parameters: species or system mice
Method: (§4) The profile of toxicity for each test drug was established by the following procedures: firstly, the minimal neurotoxic dose (TD50) was determined by the rotorod procedure at the time of peak neurotoxic effect. When a normal mouse is placed on a knurled rod one inch in diameter rotating at a speed of six rpm it can maintain its equilibrium for long periods of time. Neurological deficit is indicated by inability of the mouse to maintain its equilibrium for one minute in each of three trials on this rotating rod. Neurological deficit in rats is indicated by ataxia, loss of placing response and muscle tone. […] These observations also provide preliminary information essential for the subsequent determination of the HD50 and LD50. The HD50 represents the median dose at which 50% of animals lose their righting reflex.

[5] = mice, i.p.
Method: (§5) All animals were allowed free access to both food (S/L Custom Lab Diet-7) and water, except when they were removed from their cages for the experimental procedure.
as §1, §2

[6] = mice, i.p.; remark: listed apart in the source
Method: as §5, §1, §2, §3

[7] = Phase V, mice, i.p.
Method: as §2, §3

[8] = mice
Method: as §2, §3

[9] = mouse, in vivo
Method: as §1, §4

[10] = Subcutaneous Metrazol Seizure Threshold Test (sc Met) in mice
Method: as §5, §1, §2, §3

[11] = in vivo; settings: mice, i.p., 24 hour period
Method: as §4

Question: With `FC(F)(F)c1cccc(N2N=NCC2c2ccccc2Cl)c1` (stereo not drawn) [Compound 1, 1-m-trifluoromethylphenyl-5-(o-chlorophenyl)-Δ^2-1,2,3-triazoline] as the compound, how does the “Anticonvulsant Activity Group Classification” value [1] read?
Answer: The value was “II (Class II compounds show anticonvulsant activity at doses greater than 100 mg/kg or show activity at 100 mg/kg which is not reinforced by similar activity at 300 mg/kg)”.

Question: Which “Anticonvulsant Activity Group Classification” value [1] does the source give for `FC(F)(F)c1ccc(N2N=NCC2c2ccccc2Cl)cc1` (stereo not drawn) [Compound 2] here?
Answer: Its value is “II (Class II compounds show anticonvulsant activity at doses greater than 100 mg/kg or show activity at 100 mg/kg which is not reinforced by similar activity at 300 mg/kg)”.

Question: With `CCc1ccc(N2N=NCC2c2ccccc2Cl)cc1` (stereo not drawn) [Compound 3, 1-(p-Ethylphenyl)-5-(o-chlorophenyl)-Δ^2-1,2,3-triazoline] as the compound, how does the “Anticonvulsant Activity Group Classification” value [1] read?
Answer: Its value is “II (Class II compounds show anticonvulsant activity at doses greater than 100 mg/kg or show activity at 100 mg/kg which is not reinforced by similar activity at 300 mg/kg)”.

Question: Which “Anticonvulsant Activity Group Classification” value [1] does the source give for `O=[N+]([O-])c1ccccc1C1CN=NN1c1cccc(Cl)c1` (stereo not drawn) [Compound 4, 1-(m-Chlorophenyl)5-(o-nitrophenyl)-Δ^2-1,2,3-triazoline] here?
Answer: The value was “II (Class II compounds show anticonvulsant activity at doses greater than 100 mg/kg or show activity at 100 mg/kg which is not reinforced by similar activity at 300 mg/kg)”.

Question: Which “Anticonvulsant Activity Group Classification” value [1] does the source give for `O=[N+]([O-])c1cccc(N2N=NCC2c2ccc(Cl)cc2Cl)c1` (stereo not drawn) [Compound 5, 1-(m-Nitrophenyl)-5-(2,4-dichlorophenyl)-Δ^2-1,2,3-triazoline] here?
Answer: The value was “II (Class II compounds show anticonvulsant activity at doses greater than 100 mg/kg or show activity at 100 mg/kg which is not reinforced by similar activity at 300 mg/kg)”.

Question: With `Clc1cccc(Cl)c1C1CN=NN1c1ccc(Br)cc1` (stereo not drawn) [Compound 6, 1-(p-Bromophenyl)-5-(2,6-dichlorophenyl)-Δ^2-1,2,3-triazoline] as the compound, how does the “Anticonvulsant Activity Group Classification” value [1] read?
Answer: Its value is “II (Class II compounds show anticonvulsant activity at doses greater than 100 mg/kg or show activity at 100 mg/kg which is not reinforced by similar activity at 300 mg/kg)”.

Question: Which protection ([1]; 600 mg/kg) does the source give for `c1ccc(N2N=NCC2c2ccncc2)cc1` (stereo not drawn) [Compound 7, 1-(Phenyl)-5-(4-pyridyl)-Δ^2-1,2,3-triazoline] here?
Answer: The protection was 100%.

Question: What about the “Anticonvulsant Activity Group Classification” value [1] of the same compound?
Answer: Its value is “II (Class II compounds show anticonvulsant activity at doses greater than 100 mg/kg or show activity at 100 mg/kg which is not reinforced by similar activity at 300 mg/kg)”.

Question: And the “signs of neurological deficit” value [1]?
Answer: Its value is “without any signs of neurological deficit”.

Question: For `CCOC(=O)c1ccc(N2N=NCC2c2ccncc2)cc1` (stereo not drawn) [Compound 8, 1-(p-Ethoxycarbonyl)-5-(4-pyridyl)-Δ^2-1,2,3-triazoline], which “Anticonvulsant Activity Group Classification” value [1] is on record?
Answer: The value was “II (Class II compounds show anticonvulsant activity at doses greater than 100 mg/kg or show activity at 100 mg/kg which is not reinforced by similar activity at 300 mg/kg)”.

Question: Which anticonvulsant potency [1] does the source give for `Fc1ccc(N2N=NCC2c2ccncc2)cc1` (stereo not drawn) [Compound 10, 1-(p-Fluorophenyl)-5-(4-pyridyl)Δ^2-1,2,3-triazoline] here?
Answer: Its anticonvulsant potency is “most potent”.

Question: For `Cc1ccc(N2N=NCC2c2ccncc2)cc1` (stereo not drawn) [Compound 11, 1-(p-Methylphenyl)-5-(4-pyridyl)-Δ^2-1,2,3-triazoline], which “Anticonvulsant Activity Group Classification” value [1] is on record?
Answer: Its value is “II (Class II compounds show anticonvulsant activity at doses greater than 100 mg/kg or show activity at 100 mg/kg which is not reinforced by similar activity at 300 mg/kg)”.

Question: Which protection ([1]; 300 mg/kg) does the source give for `Clc1cccc(N2N=NCC2c2ccncc2)c1` (stereo not drawn) [Compound 12, 1-(m-chlorophenyl)-5-(4-pyridyl)-Δ^2-1,2,3-triazoline] here?
Answer: The protection was 100%.

Question: And the “Anticonvulsant Activity Group Classification” value [1]?
Answer: The value was “II (Class II compounds show anticonvulsant activity at doses greater than 100 mg/kg or show activity at 100 mg/kg which is not reinforced by similar activity at 300 mg/kg)”.

Question: What about the “signs of neurological deficit” value [1] of the same compound?
Answer: The value was “without any signs of neurological deficit”.

Question: Which “Anticonvulsant Activity Group Classification” value [1] does the source give for `c1ccc(N2N=NCC2c2ccccn2)cc1` (stereo not drawn) [Compound 13, 1-(phenyl)-5-(2-pyridyl)-Δ^2-1,2,3-triazoline] here?
Answer: Its value is “II (Class II compounds show anticonvulsant activity at doses greater than 100 mg/kg or show activity at 100 mg/kg which is not reinforced by similar activity at 300 mg/kg)”.

Question: For `Clc1ccc(N2N=NCC2c2ccccn2)cc1` (stereo not drawn) [Compound 14, 1-(p-Chlorophenyl)-5-(2-pyridyl)-Δ^2-1,2,3-triazoline], which “Anticonvulsant Activity Group Classification” value [1] is on record?
Answer: The value was “II (Class II compounds show anticonvulsant activity at doses greater than 100 mg/kg or show activity at 100 mg/kg which is not reinforced by similar activity at 300 mg/kg)”.

Question: With `O=[N+]([O-])c1cccc(N2N=NCC2c2ccc3ccccc3n2)c1` (stereo not drawn) [Compound 15, 1-(m-Nitrophenyl)-5-(2-quinolyl)-Δ^2-1,2,3-triazoline] as the compound, how does the “Anticonvulsant Activity Group Classification” value [1] read?
Answer: Its value is “II (Class II compounds show anticonvulsant activity at doses greater than 100 mg/kg or show activity at 100 mg/kg which is not reinforced by similar activity at 300 mg/kg)”.

Question: With `FC(F)(F)c1ccc(N2N=NCC2c2ccncc2)cc1` (stereo not drawn) [Compound 16, 1-(p-trifluoromethylphenyl)-5-(4-pyridyl)-Δ^2-1,2,3-triazoline] as the compound, how does the anticonvulsant potency [1] read?
Answer: Its anticonvulsant potency is “most potent”.

Question: For `FC(F)(F)c1cccc(N2N=NCC2c2ccncc2)c1` (stereo not drawn) [Compound 17, 1-(m-trifluoromethylphenyl)-5-(4-pyridyl)-Δ^2-1,2,3-triazoline], which anticonvulsant potency [1] is on record?
Answer: Its anticonvulsant potency is “most potent”.

Question: With `Fc1ccc(N2N=NCC2c2cccnc2)cc1Cl` (stereo not drawn) [Compound 18, 1-(m-chloro-p-fluorophenyl)-5-(3-pyridyl)-Δ ^2-1,2,3-triazoline] as the compound, how does the “Anticonvulsant Activity Group Classification” value [1] read?
Answer: The value was “II (Class II compounds show anticonvulsant activity at doses greater than 100 mg/kg or show activity at 100 mg/kg which is not reinforced by similar activity at 300 mg/kg)”.

Question: With `CCC1(C)CC(=O)NC1=O` (stereo not drawn) [Ethosuximide, ethosuximide] as the compound, how does the ED50 [2] read?
Answer: Its ED50 is 54 mg/kg.

Question: And the “animals protected, sc Strych test” value [3]?
Answer: The value was no more than 62%.

Question: What about the “Slope, regression line, HD50 (righting reflex)” value ([4]; mouse, in vivo, ip) of the same compound?
Answer: The value was 16.43.

Question: And the “Time of Test / time of peak toxicity, righting reflex” value ([4]; mouse, in vivo, ip)?
Answer: Its value is 1/2.

Question: What about the “Time of Test / time of peak effect (TPE), MES” value [5] of the same compound?
Answer: The value was 1/2.

Question: What about the “Time of Test / time of peak effect (TPE), sc Met” value [6] of the same compound?
Answer: Its value is 1/2.

Question: And the “effectiveness by the sc Bic test” value [7]?
Answer: Its value is “had to be given in toxic doses to protect against sc Bic seizures”.

Question: What about the “effectiveness by the sc Pic test” value ([8]; Phase V, i.p.) of the same compound?
Answer: Its value is “effective by the sc Met, sc Bic, and sc Pic tests”.

Question: What about the “Time of Test / time of peak effect (TPE), Rotorod” value ([9]; ip) of the same compound?
Answer: Its value is 1/2.

Question: What about the “TD50 (rotorod)” value ([9]; po) of the same compound?
Answer: Its value is 879.21 mg/kg.

Question: And the “effectiveness by the sc Met test” value ([10]; Phase V, mice, i.p.)?
Answer: The value was “effective by the sc Met, sc Bic, and sc Pic tests”.

Question: And the “ED50 sc Met” value ([10]; mice, i.p.)?
Answer: The value was 130.35 mg/kg.

Question: And the “ED50 scMet” value ([10]; mice, p.o.)?
Answer: Its value is 192.71 mg/kg.

Question: For `C1CCc2nnnn2CC1` [Metrazol, pentylenetetrazole], which ED97 ([10]; Mus musculus, sc, read-out: sc CD97 of Metrazol) is on record?
Answer: Its ED97 is 85 mg/kg.

Question: For `CCCC(CCC)C(=O)O` [Valproate, valproate], which ED50 [2] is on record?
Answer: The ED50 was 180 mg/kg.

Question: What about the “HD50 (righting reflex)” value ([4]; mice, i.p.) of the same compound?
Answer: Its value is 885.53 mg/kg.

Question: And the “Slope, regression line, HD50 (righting reflex)” value ([4]; mice, i.p.)?
Answer: Its value is 12.46.

Question: What about the “Time of Test / time of peak toxicity, righting reflex” value ([4]; mice, i.p.) of the same compound?
Answer: Its value is 1/4.

Question: What about the “LD50 (lethality)” value [11] of the same compound?
Answer: Its value is 1104.62 mg/kg.

Question: And the “Time of Test / time of peak effect (TPE), MES” value [5]?
Answer: The value was 1/4.

Question: And the ED50 ([10]; Mus musculus, ip, read-out: ED50 sc Met)?
Answer: Its ED50 is 149 mg/kg.

Question: What about the ED50 ([10]; Mus musculus, po, read-out: ED50 scMet) of the same compound?
Answer: The ED50 was 388 mg/kg.

Question: What about the “Time of Test / time of peak effect (TPE), sc Met” value ([10]; mice, i.p.) of the same compound?
Answer: Its value is 1/4.

Question: With picrotoxin as the compound, how does the “sc CD97 of picrotoxin” value ([8]; subcutaneous) read?
Answer: The value was 3.15 mg/kg.
